Source: ChEMBL document CHEMBL3992552, “Mechanisms of action and structure-activity relationships of cytotoxic flavokawain derivatives” (Bioorg Med Chem, 2017)
Activity calls are given as the source filed them. The calls are words filed in the database; no cut-off is given here.

How the values were obtained:
Huh-7 [1] = test: Cytotoxicity against human HuH7 cells assessed as cell survival at 50 uM after 48 hrs by Hoechst 33342 staining based assay relative to control; type: functional; details: Huh-7, 48 h, read-out: Survival
Caco-2 [2] = test: Cytotoxicity against human Caco2 cells assessed as cell survival at 50 uM after 48 hrs by Hoechst 33342 staining based assay relative to control; type: functional; details: Caco-2, 48 h, read-out: Survival
HCT-116 [3] = test: Cytotoxicity against human HCT116 cells assessed as cell survival at 50 uM after 48 hrs by Hoechst 33342 staining based assay relative to control; type: functional; details: HCT-116, 48 h, read-out: Survival
PC-3 [4] = test: Cytotoxicity against human PC3 cells assessed as cell survival at 50 uM after 48 hrs by Hoechst 33342 staining based assay relative to control; type: functional; details: PC-3, 48 h, read-out: Survival
NCI-H727 [5] = test: Cytotoxicity against human NCI-H727 cells assessed as cell survival at 50 uM after 48 hrs by Hoechst 33342 staining based assay relative to control; type: functional; details: NCI-H727, 48 h, read-out: Survival
HaCaT [6] = test: Cytotoxicity against human HaCaT cells assessed as cell survival at 50 uM after 48 hrs by Hoechst 33342 staining based assay relative to control; type: functional; details: read-out: Survival
[7] = Cytotoxicity against human fibroblasts assessed as cell survival at 50 uM after 48 hrs by Hoechst 33342 staining based assay relative to control; parameters: species or system Fibroblast; details: read-out: Survival
HCT-116 [8] = test: Cytotoxicity against human HCT116 cells assessed as cell viability after 48 hrs by Hoechst 33342 staining based assay; type: functional; details: HCT-116, 48 h
PC-3 [9] = test: Cytotoxicity against human PC3 cells assessed as cell viability after 48 hrs by Hoechst 33342 staining based assay; type: functional; details: PC-3, 48 h
NCI-H727 [10] = test: Cytotoxicity against human NCI-H727 cells assessed as cell viability after 48 hrs by Hoechst 33342 staining based assay; type: functional; details: NCI-H727, 48 h
HaCaT [11] = test: Cytotoxicity against human HaCaT cells assessed as cell viability after 48 hrs by Hoechst 33342 staining based assay; type: functional
RL = test: Cytotoxicity against human RL assessed as cell viability after 48 hrs by Hoechst 33342 staining based assay; type: functional
MCF7 [12] = test: Cytotoxicity against human MCF7 assessed as cell viability after 48 hrs by Hoechst 33342 staining based assay; type: functional; details: MCF7, 48 h
[13] = Selectivity index, ratio of IC50 for human fibroblasts to IC50 for human Caco2 cells
[14] = Selectivity index, ratio of IC50 for human fibroblasts to IC50 for human MDA-MB-231 cells
[15] = Selectivity index, ratio of IC50 for human fibroblasts to IC50 for human HCT116 cells
[16] = Selectivity index, ratio of IC50 for human fibroblasts to IC50 for human HaCaT cells
HCT-116 [17] = test: Induction of apoptosis in human HCT116 cells harboring wild-type p53 assessed as increase in early apoptosis at 2 times IC50 after 48 hrs by YoPro/propidium iodide/Hoechst staining based assay; type: functional, cell-based
MDA-MB-231 [18] = test: Induction of apoptosis in human MDA-MB-231 cells harboring p53 mutant assessed as increase in late apoptosis at 2 times IC50 after 24 hrs by YoPro/propidium iodide/Hoechst staining based assay; type: functional, cell-based
MCF7 [19] = test: Induction of apoptosis in human MCF7 cells harboring wild-type p53 assessed as increase in early apoptosis at 2 times IC50 after 24 hrs by YoPro/propidium iodide/Hoechst staining based assay; type: functional, cell-based
MCF7 [20] = test: Induction of apoptosis in human MCF7 cells harboring wild-type p53 assessed as increase in late apoptosis at 2 times IC50 after 24 hrs by YoPro/propidium iodide/Hoechst staining based assay; type: functional, cell-based
HCT-116 [21] = test: Induction of apoptosis in human HCT116 cells harboring wild-type p53 assessed as increase in cleaved caspase3 at 2 times IC50 after 48 hrs by Hoechst staining based assay; type: functional, cell-based
MDA-MB-231 [22] = test: Induction of apoptosis in human MDA-MB-231 cells harboring p53 mutant assessed as increase in cleaved caspase3 at 2 times IC50 after 24 hrs by Hoechst staining based assay; type: functional, cell-based
Huh-7 [23] = test: Cell cycle arrest in human HuH7 cells assessed as accumulation at S phase at 10 uM measured after 48 hrs by Hoechst/BrdU staining based fluorescence assay (reference value: 44%); type: functional
Caco-2 [24] = test: Cell cycle arrest in human Caco2 cells assessed as accumulation at S phase at 10 uM measured after 48 hrs by Hoechst/BrdU staining based fluorescence assay (reference value: […]); type: functional
MDA-MB-231 [25] = test: Cell cycle arrest in human MDA-MB-231 cells harboring p53 mutant assessed as accumulation at S phase at 10 uM measured after 48 hrs by Hoechst/BrdU staining based fluorescence assay (reference value: 42.2%); type: functional
NCI-H727 [26] = test: Cell cycle arrest in human NCI-H727 cells harboring p53 mutant assessed as mitotic index at 10 uM measured after 48 hrs by Hoechst staining based fluorescence assay (reference value: 1.1); type: functional
Caco-2 [27] = test: Cell cycle arrest in human Caco2 cells assessed as accumulation at S phase at 25 uM measured after 48 hrs by Hoechst/BrdU staining based fluorescence assay (reference value: […]); type: functional
NCI-H727 [28] = test: Cell cycle arrest in human NCI-H727 cells harboring p53 mutant assessed as mitotic index at 25 uM measured after 48 hrs by Hoechst staining based fluorescence assay (reference value: 1.1); type: functional
HaCaT [29] = test: Cell cycle arrest in human HaCaT cells harboring […] p53 assessed as mitotic index at 25 uM measured after 48 hrs by Hoechst staining based fluorescence assay (reference value: 2.6); type: functional
HaCaT [30] = test: Cell cycle arrest in human HaCaT cells harboring […] p53 assessed as accumulation at S phase at 25 uM measured after 48 hrs by Hoechst/BrdU staining based fluorescence assay (reference value: 52.3%); type: functional
Caco-2 [31] = test: Cell cycle arrest in human Caco2 cells assessed as accumulation at M phase by Hoechst staining based fluorescence assay; type: functional
MDA-MB-231 [32] = test: Cell cycle arrest in human MDA-MB-231 cells assessed as accumulation at M phase by Hoechst staining based fluorescence assay; type: functional
HCT-116 [33] = test: Cell cycle arrest in human HCT116 cells assessed as accumulation at G1/S phase by Hoechst staining based fluorescence assay; type: functional
PC-3 [34] = test: Cell cycle arrest in human PC3 cells assessed as accumulation at M phase by Hoechst staining based fluorescence assay; type: functional
NCI-H727 [35] = test: Cell cycle arrest in human NCI-H727 cells assessed as accumulation at G1/S phase by Hoechst staining based fluorescence assay; type: functional
MCF7 [36] = test: Induction of apoptosis in human MCF7 cells harboring wild-type p53 assessed as upregulation of p21 measured after 48 hrs by Hoechst staining based fluorescence assay; type: functional, cell-based
HCT-116 [37] = test: Induction of apoptosis in human HCT116 cells harboring wild-type p53 assessed as upregulation of cyclinB1 measured after 48 hrs by Hoechst staining based assay; type: functional, cell-based
MDA-MB-231 [38] = test: Induction of apoptosis in human MDA-MB-231 cells harboring p53 mutant assessed as upregulation of cyclinB1 after 18 hrs by Hoechst staining based assay; type: functional, cell-based

Row | Structure (SMILES) | viability at 50 µM (Huh-7 [1]) [%] | viability at 50 µM (Caco-2 [2]) [%] | viability at 50 µM (HCT-116 [3]) [%] | viability at 50 µM (PC-3 [4]) [%] | viability at 50 µM (NCI-H727 [5]) [%] | viability at 50 µM (HaCaT [6]) [%] | viability at 48 h, 50 µM [7] [%] | IC50 (HCT-116 [8]) [µM] | IC50 (PC-3 [9]) [µM] | IC50 (NCI-H727 [10]) [µM] | IC50 (HaCaT [11]) [µM] | IC50 (RL) [µM] | IC50 (MCF7 [12]) [µM] | Ratio IC50 [13] | Ratio IC50 [14] | Ratio IC50 [15] | Ratio IC50 [16] | Activity (HCT-116 [17]) | Activity (MDA-MB-231 [18]) | Activity (MCF7 [19]) | other results
1 | COc1cc(OC)c(C(=O)/C=C/c2ccc(Br)cc2)c(OC)c1 | 3 | 0 | 0 | 10 | 2 | 6 | 57 | 6.2 | 7.1 | 11.3 | 9 | 8.3 | 9.5 | >7.4 | >4.5 | >8.1 | >5.6 | Active | Active | Active | Activity (MCF7 [20]): Active; Activity (HCT-116 [21]): Active; Activity (MDA-MB-231 [22]): Active; Activity (Huh-7 [23]): 46%; Activity (Caco-2 [24]): 36%; Activity (MDA-MB-231 [25]): 42%; Activity_index (NCI-H727 [26]): 1; Activity (Caco-2 [27]): 1.9%; Activity_index (NCI-H727 [28]): 0.7; Activity_index (HaCaT [29]): 0; Activity (HaCaT [30]): 0.3%; Activity (Caco-2 [31]): Active; Activity (MDA-MB-231 [32]): Active; Activity (HCT-116 [33]): Active; Activity (PC-3 [34]): Active; Activity (NCI-H727 [35]): Active; Activity (MCF7 [36]): Active; Activity (HCT-116 [37]): Active; Activity (MDA-MB-231 [38]): Active
2 | COc1cc(OC)c(C(=O)/C=C/c2ccccc2SC)c(OC)c1 | 4 | 17 | 0 | 30 | 1 | 6 | 74 | 6.8 | 7.6 | 8.7 | 7.7 | 8.3 | 9.3 | 3.6 | 3.2 | 4.7 | 4.1 | Active | Active | Active | Activity (MCF7 [20]): Active; Activity (HCT-116 [21]): Active; Activity (MDA-MB-231 [22]): Active; Activity (Huh-7 [23]): 37%; Activity (Caco-2 [24]): 36%; Activity (MDA-MB-231 [25]): 48%; Activity_index (NCI-H727 [26]): 1; Activity (Caco-2 [27]): 2.2%; Activity_index (NCI-H727 [28]): 0; Activity_index (HaCaT [29]): 0.1; Activity (HaCaT [30]): 0%; Activity (Caco-2 [31]): Active; Activity (MDA-MB-231 [32]): Active; Activity (HCT-116 [33]): Active; Activity (PC-3 [34]): Active; Activity (NCI-H727 [35]): Active; Activity (MCF7 [36]): Active; Activity (HCT-116 [37]): Active; Activity (MDA-MB-231 [38]): Active
3 | COc1cc(OC)c(C(=O)/C=C/c2ccccc2)c(OC)c1 | 6 | 5 | 1 | 29 | 1 | 20 | 74 | 6.9 | 5.1 | 11.4 | 7.2 | 6.9 | 9.4 | >8.6 | >3.9 | >7.2 | >6.9 | Active | Active | Active | Activity (MCF7 [20]): Active; Activity (HCT-116 [21]): Active; Activity (MDA-MB-231 [22]): Active; Activity (Huh-7 [23]): 45%; Activity (Caco-2 [24]): 38%; Activity (MDA-MB-231 [25]): 37%; Activity_index (NCI-H727 [26]): 1.3; Activity (Caco-2 [27]): 24%; Activity_index (NCI-H727 [28]): 0.2; Activity_index (HaCaT [29]): 0.1; Activity (HaCaT [30]): 0.1%; Activity (Caco-2 [31]): Active; Activity (MDA-MB-231 [32]): Active; Activity (HCT-116 [33]): Active; Activity (PC-3 [34]): Active; Activity (NCI-H727 [35]): Active; Activity (MCF7 [36]): Active; Activity (HCT-116 [37]): Active; Activity (MDA-MB-231 [38]): Active
4 | COc1cccc(/C=C/C(=O)c2c(OC)cc(OC)cc2OC)c1 | 3 | 2 | 0 | 19 | 1 | 18 | 66 | 4.3 | 3.1 | 8.2 | 5.3 | 5.9 | 9.4 | >12.8 | >5.7 | >11.6 | >9.4 | Active | Active | Active | Activity (MCF7 [20]): Active; Activity (HCT-116 [21]): Active; Activity (MDA-MB-231 [22]): Active; Activity (Huh-7 [23]): 40%; Activity (Caco-2 [24]): 31%; Activity (MDA-MB-231 [25]): 43%; Activity_index (NCI-H727 [26]): 1.7; Activity (Caco-2 [27]): 6%; Activity_index (NCI-H727 [28]): 0.1; Activity_index (HaCaT [29]): 0.1; Activity (HaCaT [30]): 0%; Activity (Caco-2 [31]): Active; Activity (MDA-MB-231 [32]): Active; Activity (HCT-116 [33]): Active; Activity (PC-3 [34]): Active; Activity (NCI-H727 [35]): Active; Activity (MCF7 [36]): Active; Activity (HCT-116 [37]): Active; Activity (MDA-MB-231 [38]): Active
5 | COc1cccc(/C=C/C(=O)c2c(O)cc(OC)cc2OC)c1 | 13 | 1 | 0 | 22 | 1 | 7 | 44 | 7.7 | 7.3 | 14.8 | 10.4 | 9 | 10.3 | 2.4 | 2 | 3.5 | 2.6 | Active | Active | Active | Activity (MCF7 [20]): Active; Activity (HCT-116 [21]): Active; Activity (MDA-MB-231 [22]): Active; Activity (Huh-7 [23]): 56%; Activity (Caco-2 [24]): 31%; Activity (MDA-MB-231 [25]): 54%; Activity_index (NCI-H727 [26]): 1.2; Activity (Caco-2 [27]): 34%; Activity_index (NCI-H727 [28]): 0.1; Activity_index (HaCaT [29]): 0.1; Activity (HaCaT [30]): 8%; Activity (Caco-2 [31]): Active; Activity (MDA-MB-231 [32]): Active; Activity (HCT-116 [33]): Active; Activity (PC-3 [34]): Active; Activity (NCI-H727 [35]): Active; Activity (MCF7 [36]): Active; Activity (HCT-116 [37]): Active; Activity (MDA-MB-231 [38]): Active
